Experimental data as given in patent US20060234909A1, “Compositions and methods for increasing drug efficiency” (priority 2003, published 2006).

Experiments:
[1] = test system: HT-29 cells; conditions: read-out: HT29 (EC50 Ave) SA; HT29, SA (soft agar)
[2] = test system: tubulin; experiment: Fluorescence-based tubulin polymerization assay (MPA; enhancement for paclitaxel, inhibition for vinblastine); format: biochemical
Source text: Drug-linker constructs may further be screened using functional assays predictive of biological activity. […] Tubulin assembly or inhibition thereof may be monitored by fluorescence using the CytoDYNAMIX Screen™ 10 kit available from Cytoskeleton (1830 S. Acoma St., Denver, Colo.). […] Emission is monitored at 405 nm with excitation at 360 nm. […] Tubulin assembly or inhibition may also be monitored by light scattering which is approximated by the apparent absorption at 350 nm. For paclitaxel drug conjugates BSA is employed to prevent aggregation and glycerol, which is a tubulin polymerization enhancer, is omitted from the kit to increase the signal to noise ratio.
The assay kit (#BK011) was purchased from Cytoskeleton (Denver, Colo.). The assays were carried out according to the manufacturer's instructions, except that 1 mg/ml BSA (Sigma #A3059) was included in all assays. […] Parent drugs and conjugates were tested at 0.75, 1.5, 3 and 10 micromolar final concentration and results represent a comparison of conjugate and parent drug curves obtained from the linear range of the dose responses.
(±SD) represent the average of all tests carried out for all lots of a given compound.

[3] = test system: MCF-7 cells; conditions: read-out: MCF7 (EC50 Ave) SA; MCF7, SA (soft agar)
[4] = test system: Normal human foreskin fibroblasts (HFF); conditions: read-out: HFF (EC50 Ave) ML; HFF, ML (monolayer)
[5] = test system: MCF-7 breast carcinoma; experiment: Cytotoxicity assay (monolayer), MCF-7; format: cell-based; conditions: MCF7, ML (monolayer); read-out: MCF7 (EC50 Ave) ML;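 note: cells treated 72 h with 6-8 compound doses versus DMSO vehicle controls, EC50 fitted by 4-parameter dose-response curves, averaged across all tests and lots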
[6] = test system: HUVEC; experiment: Cytotoxicity assay (monolayer), HUVEC; format: cell-based; conditions: ML (monolayer), read-out: HUVEC (EC50 Ave) ML
[7] = test system: HT-29 colorectal carcinoma; experiment: Cytotoxicity assay (monolayer), HT-29; format: cell-based; conditions: HT29, ML (monolayer); read-out: HT29 (EC50 Ave) ML;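 note: monolayer cultures tested in triplicate, compound exposure for three days against DMSO vehicle controls, EC50 fitted from dose-response curves and averaged across all tests and lots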
[8] = target: T1, Human Src (Homo sapiens, UniProt P12931); experiment: Src kinase assay (PKLight ATP utilization, substrate phosphorylation as % of parent peptide); format: biochemical
T1 construct: purchased Upstate (Charlottesville, Va.) 14-326
Experimental: Another test may involve monitoring the consumption of ATP. For example, ATP concentrations at time 0 or after 4 hour incubation may be monitored by luciferase reaction (PKLight kit obtained from Cambrex Corporation, One Meadowlands Plaza, East Rutherford, N.J. 07073), which generate a luminescence readout in the presence of ATP. Assays are initiated by mixing a kinase and a peptide in the presence of 40 μM ATP. After 4 hour of incubation at 30° C., PKLight reagent is added and mixed well, and luminescence readout measured. The rate of peptide phosphorylation is then directly related to the rate of decrease in the observed luminescence. Based on the first test, linkers of appropriate lengths and peptides with an effective amount of kinase activity which may be expected to be retained in the drug conjugate may be found.
Human Src (#14-326) and Akt (#14-276) kinases were purchased from Upstate (Charlottesville, Va.). Kinase reactions were carried out in 50 μl kinase reaction cocktail (25 mM Tris-HCl, pH 7.5, 5 μM β-glycerophosphate, 2 mM DTT, 0.1 mM Na3VO4, 10 mM MgCl2, 1 mg/ml BSA, […], 0.5 to 1.0 units enzyme). Substrates (peptide or drug-peptide conjugate in […]) were added (25, 50 and 100 μM) and the reaction was incubated for 2-5 hours at 30° C. PKLight reagent (23 μl) (Cambrex BioSciences, Rockland, Me.) was mixed with […] of the above kinase reaction and ATP utilization relative to no substrate and no ATP controls was determined by measuring luminescence with a SpectraMax Gemini EM plate reader (Molecular Devices, Sunnyvale, Calif.). Peptide substrates for Src and Akt have been described. For examples, see Lou et al. Letters in Peptide Science, 2, 289-296 (1995); Lou et al. Bioorganic & Medicinal Chemistry, 4, 677-682 (1996); Alessi et al. FEBS Letters, 399, 333-338 (1996). Substrate phosphorylation potential was determined from the linear portion of the substrate concentration dose response as a percentage of the activity observed with the parent peptide used for drug conjugation.

Molecule | EC50 [1] [nM] | Ave. MPA Act. [2] | EC50 [3] [nM] | EC50 [4] [nM] | EC50 [5] [nM] | EC50 [6] [nM] | EC50 [7] [nM] | Average src kinase activity [8]
CC[C@]1(O)C[C@@H]2CN(CCc3c([nH]c4ccccc34)[C@@](C(=O)OC)(c3cc4c(cc3OC)N(C)[C@H]3[C@@](O)(C(=O)NN)[C@H](O)[C@]5(CC)C=CCN6CC[C@]43[C@@H]65)C2)C1 [Desacetylvinblastine monohydrazine] | < 20 | C (C>80) | < 20 | < 20 | < 20 | < 20 | < 20 | –
C=CCOC(=O)O[C@@H](C(=O)O[C@H]1C[C@@]2(O)[C@@H](OC(=O)c3ccccc3)[C@@H]3[C@]4(OC(C)=O)CO[C@@H]4C[C@H](O)[C@@]3(C)C(=O)[C@H](OC(C)=O)C(=C1C)C2(C)C)[C@@H](NC(=O)c1ccccc1)c1ccccc1 [PXL-2′Alloc] | < 20 | A (A<50) | < 20 | < 20 | < 20 | < 20 | < 20 | –
CC(=O)O[C@H]1C(=O)[C@]2(C)[C@@H](OC(=O)NCCCCCCN)C[C@H]3OC[C@@]3(OC(C)=O)[C@H]2[C@H](OC(=O)c2ccccc2)[C@]2(O)C[C@H](OC(=O)[C@H](O)[C@@H](NC(=O)c3ccccc3)c3ccccc3)C(C)=C1C2(C)C [PXL-7Ca-ALK(6)-NH2] | < 20 | A (A<50) | < 20 | < 20 | 100 to 1000 | < 20 | < 20 | –
CC(=O)O[C@H]1C(=O)[C@]2(C)[C@@H](OC(=O)CCCCCN)C[C@H]3OC[C@@]3(OC(C)=O)[C@H]2[C@H](OC(=O)c2ccccc2)[C@]2(O)C[C@H](OC(=O)[C@H](O)[C@@H](NC(=O)c3ccccc3)c3ccccc3)C(C)=C1C2(C)C [PXL-7Es-ALK(5)-NH2] | < 20 | A (A<50) | < 20 | < 20 | 100 to 1000 | < 20 | 100 to 1000 | –
CC(=O)O[C@@]12CO[C@@H]1C[C@H](O)[C@@]1(C)C(=O)[C@H](OC(=O)CCCCCN)C3=C(C)[C@@H](OC(=O)[C@H](O)[C@@H](NC(=O)c4ccccc4)c4ccccc4)C[C@@](O)([C@@H](OC(=O)c4ccccc4)[C@H]21)C3(C)C [PXL-10Es-ALK(5)-NH2] | < 20 | B (B=50-80) | < 20 | < 20 | < 20 | < 20 | < 20 | –
CC(=O)O[C@@]12CO[C@@H]1C[C@H](O)[C@@]1(C)C(=O)[C@H](OC(=O)CCCCCCNC(=O)OCc3ccccc3)C3=C(C)[C@@H](OC(=O)[C@H](O)[C@@H](NC(=O)c4ccccc4)c4ccccc4)C[C@@](O)([C@@H](OC(=O)c4ccccc4)[C@H]21)C3(C)C [PXL-10Es-Alk(6)-NH(Z)] | < 20 | A (A<50) | < 20 | < 20 | < 20 | < 20 | < 20 | –
CC[C@]1(O)C[C@@H]2CN(CCc3c([nH]c4ccccc34)[C@@](C(=O)OC)(c3cc4c(cc3OC)N(C)[C@H]3[C@@](O)(C(=O)NCCCCCCN)[C@H](O)[C@]5(CC)C=CCN6CC[C@]43[C@@H]65)C2)C1 [VBL-3Am-ALK(6)-NH2] | < 20 | C (C>80) | < 20 | < 20 | < 20 | < 20 | < 20 | –
CC[C@]1(O)C[C@@H]2CN(CCc3c([nH]c4ccccc34)[C@@](C(=O)OC)(c3cc4c(cc3OC)N(C)[C@H]3[C@@](O)(C(=O)NCCCCCCNC(=O)OC(C)(C)C)[C@H](O)[C@]5(CC)C=CCN6CC[C@]43[C@@H]65)C2)C1 [VBL-3Am-ALK(6)-NH(B)] | < 20 | A (A<50) | < 20 | < 20 | < 20 | < 20 | < 20 | –
CC[C@]1(O)C[C@@H]2CN(CCc3c([nH]c4ccccc34)[C@@](C(=O)OC)(c3cc4c(cc3OC)N(C)[C@H]3[C@@](O)(C(=O)NCCCCCCCCN)[C@H](O)[C@]5(CC)C=CCN6CC[C@]43[C@@H]65)C2)C1 [VBL-3Am-ALK(8)-NH2] | < 20 | B (B=50-80) | < 20 | < 20 | < 20 | < 20 | < 20 | –
CC[C@]1(O)C[C@@H]2CN(CCc3c([nH]c4ccccc34)[C@@](C(=O)OC)(c3cc4c(cc3OC)N(C)[C@H]3[C@@](O)(C(=O)NCCCCCCCCCCCCN)[C@H](O)[C@]5(CC)C=CCN6CC[C@]43[C@@H]65)C2)C1 [VBL-3Am-ALK(12)-NH2] | < 20 | B (B=50-80) | < 20 | < 20 | < 20 | < 20 | < 20 | –
CC[C@]1(O)C[C@@H]2CN(CCc3c([nH]c4ccccc34)[C@@](C(=O)OC)(c3cc4c(cc3OC)N(C)[C@H]3[C@@](O)(C(=O)NCCCCCCCCCCCCNC(=O)OC(C)(C)C)[C@H](O)[C@]5(CC)C=CCN6CC[C@]43[C@@H]65)C2)C1 [VBL-3Am-ALK(12)-NH(B)] | < 20 | A (A<50) | < 20 | < 20 | 20 to 100 | < 20 | 100 to 1000 | –
CC[C@]1(O)CC2CN(CCc3c([nH]c4ccccc34)[C@@](C(=O)OC)(c3cc4c(cc3OC)N(C)[C@H]3C(O)(C(=O)NCCOCCOCCOCCN)[C@H](O)[C@]5(CC)C=CCN6CCC43[C@@H]65)C2)C1 (stereo partly shown) [VBL-3Am-PEG(11)-NH2] | < 20 | B (B=50-80) | < 20 | < 20 | 20 to 100 | < 20 | 20 to 100 | –
Ac-EYIYGSFR-PEG(11)-3Am-VBL (N-acetyl, PEG11, vinblastine conjugate) | > 100 | C (C>80) | > 100 | > 100 | > 100 | > 100 | > 100 | B (B=20-40)
Ac-EYIyGSFK-PEG(13)-10Ca-PXL (EYIYGSFK; not fully specified) | > 100 | C (C>80) | > 100 | > 100 | > 100 | > 100 | > 100 | Zero
Ac-YIYGSFR-PEG(11)-3Am-VBL (N-acetyl; PEG(11) linker; vinblastine conjugate) | > 100 | B (B=50-80) | 20 to 100 | > 100 | 20 to 100 | > 100 | 20 to 100 | C (C>40)
BOC-E(Bzl)YIFGSFK(BOC)-PEG(11)-3Am-VBL | 20 to 100 | A (A<50) | < 20 | > 100 | 20 to 100 | > 100 | > 100 | A (A<20)
BOC-EYIYGSFK(BOC)-PEG(11)-3Am-VBL (N-BOC; BOC side chain; PEG(11); vinblastine conjugate) | > 100 | C (C>80) | > 100 | > 100 | > 100 | > 100 | > 100 | B (B=20-40)
